Test results from paper PMC3113660 (Journal of medicinal chemistry, 2010).
Read-outs that look alike come from different tables or passages of the source. One block for each compound: values may come before it.

How the values were obtained:
[1] = system: T. brucei rhodesiense STIB900; type: in vivo, mice; settings: for cures: number of mice that survive and are parasite free for 60 days; for toxicity in the in vivo model (mice died due to toxicity): infected mice
[2] = system: Leishmania donovani (MHOM/SD/62/1S-CL2D) axenic amastigotes; experiment: Antileishmanial assay; type: cell-based; settings: for activity against L. donovani (in words): in vitro, axenic amastigotes
[3] = system: Plasmodium falciparum (K1, resistant to chloroquine); experiment: In vitro growth inhibition assay of P. falciparum; type: cell-based; settings: for IC50: Plasmodium falciparum
[4] = system: Trypanosoma brucei rhodesiense (STIB900); experiment: In vitro growth inhibition assay of T. brucei rhodesiense; type: cell-based; settings: for SIT, selectivity index for T. brucei rhodesiense: ratio IC50 (L6)/IC50 (T. brucei rhodesiense)
L6 rat myoblast cells = experiment: In vitro cytotoxicity assay; type: cell-based; settings: L6 cells; relative to 5,5′-disubstituted analogue 1
P. berghei [5] = experiment: P. berghei mouse model; type: in vivo; settings: subcutaneously at 30 mg/kg daily for four days; data not shown
[6] = In vitro cytotoxicity assay; type: cell-based, rat; settings: rat
P. berghei [7] = settings: mice; cited from earlier work
[8] = K1, read-out: antiplasmodial IC50, P. falciparum, in vitro
[9] = relative to bis(N-isopropyl)amidine 32

Structure (SMILES): Cl.Cl.N=C(N)c1cccc(-c2cn(-c3cccc(C(=N)N)c3)nn2)c1 [Compound 1, 1,4-Bis(3-amidinophenyl)-1H-1,2,3-triazole Dihydrochloride]
cures ([1]; 4 × 5 mg/kg ip): no activity | activity against L. donovani (in words) [2]: active | IC50 [3, 8]: < 58 nM

Structure (SMILES): COc1ccc(C2=NCCN2)cc1-c1cn(-c2cccc(C3=NCCN3)c2)nn1.Cl.Cl [Compound 9, 4-[5-(4,5-Dihydro-1H-imidazol-2-yl)-2-methoxyphenyl]-1-[3-(4,5-dihydro-1H-imidazol-2-yl)phenyl]-1H-1,2,3-triazole Dihydrochloride]
cures ([1]; 4 × 1 mg/kg ip): no cures | activity against L. donovani (in words) [2]: active | SIT, selectivity index for T. brucei rhodesiense [4]: >29333 | times as active against T. brucei rhodesiense ([4]; relative to unsubstituted analogue 3): ~2350 times | IC50 [3, 8]: < 58 nM | fold more active against P. falciparum ([3]; relative to diimidazoline 3): 26 fold

Structure (SMILES): Cl.Cl.N=C(N)c1cccc(-n2cc(-c3cc(C(=N)N)ccc3O)nn2)c1 [Compound 13, 4-(5-Amidino-2-hydroxyphenyl)-1-(3-amidinophenyl)-1H-1,2,3-triazole Dihydrochloride]
activity against L. donovani (in words) [2]: active | fold less active against T. brucei rhodesiense ([4]; relative to diamidine 1): 2 fold | IC50 [3, 8]: < 58 nM

Structure (SMILES): Cl.Cl.N=C(N)c1ccc(-n2cc(-c3cccc(C(=N)N)c3)nn2)cc1 [Compound 16, 1-(4-Amidinophenyl)-4-(3-amidinophenyl)-1H-1,2,3-triazole Dihydrochloride]
cures ([1]; 4 × 5 mg/kg ip): curing one out of four mice | activity against L. donovani (in words) [2]: active | fold increased cytotoxicity (L6 rat myoblast cells): ~25 fold

IC50 [3, 8]: < 58 nM
Structure (SMILES): CC(C)NC(=N)c1ccc(-n2cc(-c3cccc(C(=N)NC(C)C)c3)nn2)cc1.Cl.Cl [Compound 17, 1-(4-N-Isopropylamidinophenyl)-4-(3-N-isopropylamidinophenyl)-1H-1,2,3-triazole Dihydrochloride]
fold less active against T. brucei rhodesiense ([4]; relative to diamidine 16): 67 fold

Structure (SMILES): COc1cc(C(=N)N)ccc1-n1cc(-c2cccc(C(=N)N)c2)nn1.Cl.Cl [Compound 19, 1-(4-Amidino-2-methoxyphenyl)-4-(3-amidinophenyl)-1H-1,2,3-triazole Dihydrochloride]
activity against L. donovani (in words) [2]: active | SIT, selectivity index for T. brucei rhodesiense [4]: >17455 | IC50 [3, 8]: < 58 nM

IC50 [3, 8]: < 58 nM
Structure (SMILES): COc1cc(C(=N)NC(C)C)ccc1-n1cc(-c2cccc(C(=N)NC(C)C)c2)nn1.Cl.Cl [Compound 20, 1-(4-N-Isopropylamidino-2-methoxyphenyl)-4-(3-N-isopropylamidinophenyl)-1H-1,2,3-triazole Dihydrochloride]
fold less active against T. brucei rhodesiense ([4]; relative to congener 19): 178 fold

Structure (SMILES): COc1ccc(C(=N)N)cc1-c1cn(-c2ccc(C(=N)N)cc2)nn1.Cl.Cl [Compound 22, 4-(5-Amidino-2-methoxyphenyl)-1-(4-amidinophenyl)-1H-1,2,3-triazole Dihydrochloride]
cures ([1]; 4 × 5 mg/kg ip): curing at least two out of four animals | activity against L. donovani (in words) [2]: active | SIT, selectivity index for T. brucei rhodesiense [4]: >24750 | IC50 [3, 8]: < 58 nM

Structure (SMILES): COc1ccc(C(=N)NC(C)C)cc1-c1cn(-c2ccc(C(=N)NC(C)C)cc2)nn1.Cl.Cl [Compound 23, 4-(5-N-Isopropylamidino-2-methoxyphenyl)-1-(4-N-isopropylamidinophenyl)-1H-1,2,3-triazole Dihydrochloride]
toxicity in the in vivo model (mice died due to toxicity) ([1]; 4 × 5 mg/kg ip, 5 mg/kg): toxic | IC50 [3, 8]: < 58 nM

Structure (SMILES): Cl.Cl.N=C(N)c1ccc(-n2cc(-c3cc(C(=N)N)ccc3O)nn2)cc1 [Compound 28, 4-(5-Amidino-2-hydroxyphenyl)-1-(4-amidinophenyl)-1H-1,2,3-triazole Dihydrochloride]
activity against L. donovani (in words) [2]: active | IC50 [3, 8]: < 58 nM

IC50 [3, 8]: < 58 nM
Structure (SMILES): Cl.Cl.Oc1ccc(C2=NCCN2)cc1-c1cn(-c2ccc(C3=NCCN3)cc2)nn1 [Compound 30, 4-[5-(4,5-Dihydro-1H-imidazol-2-yl)-2-hydroxyphenyl]-1-[4-(4,5-dihydro-1H-imidazol-2-yl)phenyl]-1H-1,2,3-triazole Dihydrochloride]
activity against L. donovani (in words) [2]: active

Structure (SMILES): Cl.Cl.N=C(N)c1ccc(-c2cn(-c3cccc(C(=N)N)c3)nn2)cc1 [Compound 31, 1-(3-Amidinophenyl)-4-(4-amidinophenyl)-1H-1,2,3-triazole Dihydrochloride]
cures ([1]; 4 × 5 mg/kg ip): curing one out of four mice

IC50 [3, 8]: < 58 nM
Structure (SMILES): CC(C)NC(=N)c1ccc(-c2cn(-c3cccc(C(=N)NC(C)C)c3)nn2)cc1.Cl.Cl [Compound 32, 1-(3-N-Isopropylamidinophenyl)-4-(4-N-isopropylamidinophenyl)-1H-1,2,3-triazole Dihydrochloride]
fold less active against T. brucei rhodesiense ([4]; relative to diamidine 31): 77 fold

Structure (SMILES): COc1cc(C(=N)N)ccc1-c1cn(-c2cccc(C(=N)N)c2)nn1.Cl.Cl [Compound 37, 4-(4-Amidino-2-methoxyphenyl)-1-(3-amidinophenyl)-1H-1,2,3-triazole Dihydrochloride]
cures ([1]; 4 × 1 mg/kg ip): no cures | IC50 [3, 8]: < 58 nM

IC50 [3, 8]: < 58 nM
Structure (SMILES): COc1cc(C(=N)NC(C)C)ccc1-c1cn(-c2cccc(C(=N)NC(C)C)c2)nn1.Cl.Cl [Compound 38, 4-(4-N-Isopropylamidino-2-methoxyphenyl)-1-(3-N-isopropylamidinophenyl)-1H-1,2,3-triazole Dihydrochloride]
fold less active against T. brucei rhodesiense ([4]; relative to diamidine 37): 141 fold

Structure (SMILES): CC(C)NC(=N)c1ccc(-c2cn(-c3cc(C(=N)NC(C)C)ccc3O)nn2)cc1.Cl.Cl [Compound 41, 1-(5-N-Isopropylamidino-2-hydroxyphenyl)-4-(4-N-isopropylamidinophenyl)-1H-1,2,3-triazole Dihydrochloride]
fold less active against T. brucei rhodesiense [4, 9]: 33 fold | fold less active against P. falciparum [3, 9]: 123 fold

Structure (SMILES): Cl.Cl.N=C(N)c1cccc(-n2cc(-c3ccc(C(=N)N)cc3O)nn2)c1 [Compound 43, 4-(4-Amidino-2-hydroxyphenyl)-1-(3-amidinophenyl)-1H-1,2,3-triazole Dihydrochloride]
cures ([1]; 4 × 5 mg/kg ip): curing at least two out of four animals | SIT, selectivity index for T. brucei rhodesiense [4]: >26250 | IC50 [3, 8]: < 58 nM

Structure (SMILES): Cl.Cl.N=C(N)c1ccc(-c2cn(-c3ccc(C(=N)N)cc3)nn2)cc1 [Compound 46, 1,4-Bis(4-amidinophenyl)-1H-1,2,3-triazole Dihydrochloride]
cures ([1]; 4 × 0.5 mg/kg ip): no cures | fold increased cytotoxicity (L6 rat myoblast cells): ~25 fold | IC50 [3, 8]: < 58 nM

Structure (SMILES): CC(C)NC(=N)c1ccc(-c2cn(-c3ccc(C(=N)NC(C)C)cc3)nn2)cc1.Cl.Cl [Compound 47, 1,4-Bis(4-N-isopropylamidinophenyl)-1H-1,2,3-triazole Dihydrochloride]
toxicity in the in vivo model (mice died due to toxicity) ([1]; 4 × 5 mg/kg ip): toxic | IC50 [3, 8]: < 58 nM

Structure (SMILES): COc1cc(C(=N)N)ccc1-c1cn(-c2ccc(C(=N)N)cc2)nn1.Cl.Cl [Compound 52, 4-(4-Amidino-2-methoxyphenyl)-1-(4-amidinophenyl)-1H-1,2,3-triazole Dihydrochloride]
cures ([1]; 4 × 5 mg/kg ip): curing at least two out of four animals

Structure (SMILES): Cl.Cl.Oc1cc(C2=NCCN2)ccc1-c1cn(-c2ccc(C3=NCCN3)cc2)nn1 [Compound 60, 4-[4-(4,5-Dihydro-1H-imidazol-2-yl)-2-hydroxyphenyl]-1-[4-(4,5-dihydro-1H-imidazol-2-yl)phenyl]-1H-1,2,3-triazole Dihydrochloride]
effect on blood parasite count (P. berghei [5]): did not reduce the blood parasite count | times as active against P. falciparum ([3]; relative to diimidazoline 48): 3 times | times greater antiplasmodial selectivity index SIP ([3]; relative to pentamidine): ~400 times

Structure (SMILES): C[C@@H]1CC[C@H]2[C@@H](C)C(=O)O[C@@H]3O[C@@]4(C)CC[C@@H]1[C@]32OO4 [artemisinin, reference compound]
IC50 at 70 h [6]: 450000 nM | SIP, selectivity index for P. falciparum ([3]; ratio IC50 (L6)/IC50 (P. falciparum)): 75000

Structure (SMILES): CCN(CC)CCCC(C)Nc1ccnc2cc(Cl)ccc12 (stereo not shown) [chloroquine, reference compound]
IC50 at 70 h [6]: 117000 nM | IC50 ([3]; K1, read-out: P. falciparum IC50): 124 nM

Structure (SMILES): N=C(N)c1ccc(-c2ccc(-c3ccc(C(=N)N)cc3)o2)cc1 [furamidine, 2,5-bis(4-amidinophenyl)furan]
activity against trophozoite-induced P. berghei infection (P. berghei [7]): inactive

Structure (SMILES): Nc1nc(N)nc(Nc2ccc([As]3SCC(CO)S3)cc2)n1 (stereo not shown) [melarsoprol]
IC50 at 70 h [6]: 7780 nM

IC50 ([2]; Leishmania donovani, read-out: L. donovani IC50): 1800 nM
Structure (SMILES): N=C(N)c1ccc(OCCCCCOc2ccc(C(=N)N)cc2)cc1 [pentamidine, 1,5-bis(4-amidinophenoxy)pentane, reference compound]

Structure (SMILES): COc1cc([C@@H]2c3cc4c(cc3[C@H](O)[C@H]3COC(=O)[C@H]23)OCO4)cc(OC)c1OC [podophyllotoxin]
IC50 at 70 h [6]: 20 nM
